# Reference: PubChem BioAssay AID272 (DTP/NCI, 2004)
# Several values for one entry are separate records, joined by “and”; a condition that tells them apart may be missing. Equal values may be shown once. Records with an inconclusive call do not appear.
# System: Lewis lung carcinoma i.m., BDF1 mice, T/C %
# Test: NCI In Vivo Anticancer Drug Screen. Data for tumor model Lewis Lung Carcinoma (intramuscular) in B6D2F1 (BDF1) mice
# Procedure, shortened: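 Antitumour activity is assessed in transplanted-tumour mice. Endpoint is survival or tumour size, normalised to vehicle-dosed controls (T/C).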
smiles,measurement,setting,value
Cc1c(N)nc([C@H](CC(N)=O)NC[C@H](N)C(N)=O)nc1C(=O)N[C@H](C(=O)N[C@H](C)[C@@H](O)[C@H](C)C(=O)N[C@H](C(=O)NCCc1nc(-c2nc(C(=O)NCCC[S+](C)C)cs2)cs1)[C@@H](C)O)C(OC1OC(CO)C(O)C(O)C1OC1OC(CO)C(O)C(OC(N)=O)C1O)c1cnc[nH]1 (stereo not given in full),T/C,"endpoint: mean tumor weight (est.), dose: 2.5 mg/kg/injection, schedule: Q01DX009 (ip), vehicle: saline, higher = larger tumour",44 % of control
same,T/C,"endpoint: mean tumor weight (est.), dose: 8.4 mg/kg/injection, schedule: Q01DX009 (ip), vehicle: saline, higher = larger tumour",24 % of control and 42 % of control
same,T/C,"endpoint: mean tumor weight (est.), dose: 14.0 mg/kg/injection, schedule: Q01DX009 (ip), vehicle: saline, higher = larger tumour",27 % of control and 37 % of control
same,T/C,"endpoint: mean tumor weight (est.), dose: 23.0 mg/kg/injection, schedule: Q01DX009 (ip), vehicle: saline, higher = larger tumour",14 % of control and 26 % of control
same,T/C,"endpoint: mean tumor weight (est.), dose: 39.0 mg/kg/injection, schedule: Q01DX009 (ip), vehicle: saline, higher = larger tumour",12 % of control
same,T/C,"endpoint: mean tumor weight, dose: 3.0 mg/kg/injection, schedule: Q01DX011 (ip), vehicle: saline, higher = larger tumour",38 % of control
same,T/C,"endpoint: mean tumor weight, dose: 3.75 mg/kg/injection, schedule: Q01DX011 (sc), vehicle: saline, higher = larger tumour",60 % of control
same,T/C,"endpoint: mean tumor weight, dose: 4.0 mg/kg/injection, schedule: Q01DX011 (ip), vehicle: saline, higher = larger tumour",18 % of control
same,T/C,"endpoint: mean tumor weight, dose: 5.0 mg/kg/injection, schedule: Q01DX011 (ip), vehicle: saline, higher = larger tumour",12 % of control and 15 % of control
same,T/C,"endpoint: mean tumor weight, dose: 6.0 mg/kg/injection, schedule: Q01DX011 (ip), vehicle: saline, higher = larger tumour",19 % of control
same,T/C,"endpoint: mean tumor weight, dose: 7.5 mg/kg/injection, schedule: Q01DX011 (sc), vehicle: saline, higher = larger tumour",23 % of control
same,T/C,"endpoint: mean tumor weight, dose: 8.4 mg/kg/injection, schedule: Q01DX011 (ip), vehicle: saline, higher = larger tumour",7 % of control
same,T/C,"endpoint: mean tumor weight, dose: 8.5 mg/kg/injection, schedule: Q01DX011 (ip), vehicle: saline, higher = larger tumour",19 % of control
same,T/C,"endpoint: mean tumor weight, dose: 10.0 mg/kg/injection, schedule: Q04DX003 (ip), vehicle: saline, higher = larger tumour",56 % of control
same,T/C,"endpoint: mean tumor weight, dose: 12.5 mg/kg/injection, schedule: Q04DX003 (ip), vehicle: saline, higher = larger tumour",23 % of control
same,T/C,"endpoint: mean tumor weight, dose: 14.0 mg/kg/injection, schedule: Q01DX011 (ip), vehicle: saline, higher = larger tumour",6 % of control
same,T/C,"endpoint: mean tumor weight, dose: 18.0 mg/kg/injection, schedule: Q04DX003 (ip), vehicle: saline, higher = larger tumour",35 % of control
same,T/C,"endpoint: mean tumor weight, dose: 20.0 mg/kg/injection, schedule: Q01DX011 (ip), vehicle: saline, higher = larger tumour",2 % of control and 12 % of control
same,T/C,"endpoint: mean tumor weight, dose: 20.0 mg/kg/injection, schedule: Q04DX003 (ip), vehicle: saline, higher = larger tumour",43 % of control
same,T/C,"endpoint: mean tumor weight, dose: 23.0 mg/kg/injection, schedule: Q01DX011 (ip), vehicle: saline, higher = larger tumour",5 % of control
same,T/C,"endpoint: mean tumor weight, dose: 23.0 mg/kg/injection, schedule: Q04DX003 (ip), vehicle: saline, higher = larger tumour",40 % of control
same,T/C,"endpoint: mean tumor weight, dose: 25.0 mg/kg/injection, schedule: Q01DX001 (ip), vehicle: saline, higher = larger tumour",51 % of control
same,T/C,"endpoint: mean tumor weight, dose: 25.0 mg/kg/injection, schedule: Q04DX003 (ip), vehicle: saline, higher = larger tumour",18 % of control
same,T/C,"endpoint: mean tumor weight, dose: 36.0 mg/kg/injection, schedule: Q01DX001 (ip), vehicle: saline, higher = larger tumour",65 % of control
same,T/C,"endpoint: mean tumor weight, dose: 36.0 mg/kg/injection, schedule: Q04DX003 (ip), vehicle: saline, higher = larger tumour",18 % of control
same,T/C,"endpoint: mean tumor weight, dose: 39.0 mg/kg/injection, schedule: Q04DX003 (ip), vehicle: saline, higher = larger tumour",19 % of control
same,T/C,"endpoint: mean tumor weight, dose: 40.0 mg/kg/injection, schedule: Q04DX003 (ip), vehicle: saline, higher = larger tumour",31 % of control
same,T/C,"endpoint: mean tumor weight, dose: 51.0 mg/kg/injection, schedule: Q01DX001 (ip), vehicle: saline, higher = larger tumour",35 % of control
same,T/C,"endpoint: median survival time, dose: 2.0 mg/kg/injection, schedule: Q01DX011 (ip), vehicle: saline, higher = longer survival",153 % of control
same,T/C,"endpoint: median survival time, dose: 2.5 mg/kg/injection, schedule: Q01DX014 (ip), vehicle: saline, higher = longer survival",113 % of control
same,T/C,"endpoint: median survival time, dose: 3.0 mg/kg/injection, schedule: Q01DX004 (ip), vehicle: saline, higher = longer survival",116 % of control
same,T/C,"endpoint: median survival time, dose: 3.0 mg/kg/injection, schedule: Q09DX009 (ip), vehicle: saline, higher = longer survival",119 % of control and 120 % of control
same,T/C,"endpoint: median survival time, dose: 3.75 mg/kg/injection, schedule: Q01DX011 (sc), vehicle: saline, higher = longer survival",158 % of control
same,T/C,"endpoint: median survival time, dose: 4.0 mg/kg/injection, schedule: Q01DX011 (ip), vehicle: saline, higher = longer survival",119 % of control
same,T/C,"endpoint: median survival time, dose: 5.0 mg/kg/injection, schedule: Q01DX004 (ip), vehicle: saline, higher = longer survival",123 % of control
same,T/C,"endpoint: median survival time, dose: 5.0 mg/kg/injection, schedule: Q01DX009 (ip), vehicle: none, higher = longer survival",150 % of control and 163 % of control
same,T/C,"endpoint: median survival time, dose: 5.0 mg/kg/injection, schedule: Q01DX011 (ip), vehicle: saline, higher = longer survival",150 % of control
same,T/C,"endpoint: median survival time, dose: 5.0 mg/kg/injection, schedule: Q01DX014 (ip), vehicle: saline, higher = longer survival",123 % of control
same,T/C,"endpoint: median survival time, dose: 5.0 mg/kg/injection, schedule: Q09DX009 (ip), vehicle: saline, higher = longer survival",150 % of control
same,T/C,"endpoint: median survival time, dose: 6.5 mg/kg/injection, schedule: Q01DX011 (ip), vehicle: saline, higher = longer survival",158 % of control
same,T/C,"endpoint: median survival time, dose: 7.5 mg/kg/injection, schedule: Q01DX011 (sc), vehicle: saline, higher = longer survival",153 % of control
same,T/C,"endpoint: median survival time, dose: 8.0 mg/kg/injection, schedule: Q01DX011 (ip), vehicle: saline, higher = longer survival",150 % of control
same,T/C,"endpoint: median survival time, dose: 8.4 mg/kg/injection, schedule: Q01DX004 (ip), vehicle: saline, higher = longer survival",123 % of control
same,T/C,"endpoint: median survival time, dose: 8.4 mg/kg/injection, schedule: Q01DX009 (ip), vehicle: none, higher = longer survival",113 % of control and 115 % of control
same,T/C,"endpoint: median survival time, dose: 8.4 mg/kg/injection, schedule: Q09DX009 (ip), vehicle: saline, higher = longer survival",116 % of control
same,T/C,"endpoint: median survival time, dose: 10.0 mg/kg/injection, schedule: Q01DX011 (ip), vehicle: saline, higher = longer survival",167 % of control
same,T/C,"endpoint: median survival time, dose: 10.0 mg/kg/injection, schedule: Q01DX014 (ip), vehicle: saline, higher = longer survival",124 % of control
same,T/C,"endpoint: median survival time, dose: 10.0 mg/kg/injection, schedule: Q04DX003 (ip), vehicle: saline, higher = longer survival",107 % of control and 108 % of control
same,T/C,"endpoint: median survival time, dose: 10.8 mg/kg/injection, schedule: Q01DX011 (ip), vehicle: saline, higher = longer survival",166 % of control
same,T/C,"endpoint: median survival time, dose: 12.5 mg/kg/injection, schedule: Q04DX003 (ip), vehicle: saline, higher = longer survival",122 % of control
same,T/C,"endpoint: median survival time, dose: 14.0 mg/kg/injection, schedule: Q01DX009 (ip), vehicle: none, higher = longer survival",159 % of control
same,T/C,"endpoint: median survival time, dose: 14.0 mg/kg/injection, schedule: Q04DX003 (ip), vehicle: saline, higher = longer survival",112 % of control
same,T/C,"endpoint: median survival time, dose: 15.0 mg/kg/injection, schedule: Q01DX011 (sc), vehicle: saline, higher = longer survival",161 % of control
same,T/C,"endpoint: median survival time, dose: 16.0 mg/kg/injection, schedule: Q01DX011 (ip), vehicle: saline, higher = longer survival",150 % of control
same,T/C,"endpoint: median survival time, dose: 18.0 mg/kg/injection, schedule: Q01DX011 (ip), vehicle: saline, higher = longer survival",152 % of control and 170 % of control
same,T/C,"endpoint: median survival time, dose: 18.0 mg/kg/injection, schedule: Q04DX003 (ip), vehicle: saline, higher = longer survival",124 % of control
same,T/C,"endpoint: median survival time, dose: 20.0 mg/kg/injection, schedule: Q01DX011 (ip), vehicle: saline, higher = longer survival",165 % of control
same,T/C,"endpoint: median survival time, dose: 20.0 mg/kg/injection, schedule: Q01DX014 (ip), vehicle: saline, higher = longer survival",75 % of control
same,T/C,"endpoint: median survival time, dose: 20.0 mg/kg/injection, schedule: Q04DX003 (ip), vehicle: saline, higher = longer survival",157 % of control and 160 % of control
same,T/C,"endpoint: median survival time, dose: 23.0 mg/kg/injection, schedule: Q01DX009 (ip), vehicle: none, higher = longer survival",64 % of control and 95 % of control
same,T/C,"endpoint: median survival time, dose: 23.0 mg/kg/injection, schedule: Q04DX003 (ip), vehicle: saline, higher = longer survival",112 % of control
same,T/C,"endpoint: median survival time, dose: 23.0 mg/kg/injection, schedule: Q09DX009 (ip), vehicle: saline, higher = longer survival",169 % of control
same,T/C,"endpoint: median survival time, dose: 25.0 mg/kg/injection, schedule: Q01DX001 (ip), vehicle: saline, higher = longer survival",107 % of control
same,T/C,"endpoint: median survival time, dose: 30.0 mg/kg/injection, schedule: Q01DX011 (ip), vehicle: saline, higher = longer survival",166 % of control
same,T/C,"endpoint: median survival time, dose: 36.0 mg/kg/injection, schedule: Q01DX001 (ip), vehicle: saline, higher = longer survival",124 % of control
same,T/C,"endpoint: median survival time, dose: 39.0 mg/kg/injection, schedule: Q01DX004 (ip), vehicle: saline, higher = longer survival",54 % of control
same,T/C,"endpoint: median survival time, dose: 39.0 mg/kg/injection, schedule: Q04DX003 (ip), vehicle: saline, higher = longer survival",103 % of control and 120 % of control
same,T/C,"endpoint: median survival time, dose: 40.0 mg/kg/injection, schedule: Q01DX014 (ip), vehicle: saline, higher = longer survival",48 % of control
same,T/C,"endpoint: median survival time, dose: 40.0 mg/kg/injection, schedule: Q04DX003 (ip), vehicle: saline, higher = longer survival",97 % of control
same,T/C,"endpoint: median survival time, dose: 51.0 mg/kg/injection, schedule: Q01DX001 (ip), vehicle: saline, higher = longer survival",122 % of control
same,T/C,"endpoint: median survival time, dose: 65.0 mg/kg/injection, schedule: Q04DX003 (ip), vehicle: saline, higher = longer survival",108 % of control
same,T/C,"endpoint: median survival time, dose: 80.0 mg/kg/injection, schedule: Q04DX003 (ip), vehicle: saline, higher = longer survival",60 % of control
CCCCOc1ccc(NC(N)=Nc2ccc(Cl)cc2)cc1,T/C,"endpoint: mean tumor weight (est.), dose: 3.12 mg/kg/injection, schedule: Q01DX011 (ip), vehicle: saline with Tween-80, higher = larger tumour",118 % of control
same,T/C,"endpoint: mean tumor weight (est.), dose: 6.25 mg/kg/injection, schedule: Q01DX011 (ip), vehicle: saline with Tween-80, higher = larger tumour",101 % of control
same,T/C,"endpoint: mean tumor weight (est.), dose: 12.5 mg/kg/injection, schedule: Q01DX011 (ip), vehicle: saline with Tween-80, higher = larger tumour",67 % of control
same,T/C,"endpoint: mean tumor weight (est.), dose: 25.0 mg/kg/injection, schedule: Q01DX011 (ip), vehicle: saline with Tween-80, higher = larger tumour",58 % of control
same,T/C,"endpoint: median survival time, dose: 3.12 mg/kg/injection, schedule: Q01DX011 (ip), vehicle: saline with Tween-80, higher = longer survival",97 % of control
same,T/C,"endpoint: median survival time, dose: 6.25 mg/kg/injection, schedule: Q01DX011 (ip), vehicle: saline with Tween-80, higher = longer survival",123 % of control
same,T/C,"endpoint: median survival time, dose: 12.5 mg/kg/injection, schedule: Q01DX011 (ip), vehicle: saline with Tween-80, higher = longer survival",102 % of control
same,T/C,"endpoint: median survival time, dose: 25.0 mg/kg/injection, schedule: Q01DX011 (ip), vehicle: saline with Tween-80, higher = longer survival",104 % of control
